Reference: PMC3384297 (2012)

Key:
Test in all cases: FRET melting
[1] = tested on: F21D (DNA, G4) GGGTTAGGGTTAGGGTTAGGG; settings: 5 mM K+, 95 mM Li+; 10 mM lithium cacodylate pH 7.2; 0.2 µM DNA, 1 µM porphyrin
[2] = tested on: FGD (DNA, G4) GGGTGTGGGTGTGGGTGTGGG; settings: 5 mM K+, 95 mM Li+; 10 mM lithium cacodylate pH 7.2; 0.2 µM DNA, 1 µM porphyrin
[3] = tested on: F21D (DNA, G4) GGGTTAGGGTTAGGGTTAGGG; settings: 5 mM K+, 95 mM Li+; 10 mM Li cacodylate pH 7.2; 0.2 µM DNA, 1 µM NMM
[4] = tested on: FGD (DNA, G4) GGGTGTGGGTGTGGGTGTGGG; settings: 5 mM K+, 95 mM Li+; 10 mM Li cacodylate pH 7.2; 0.2 µM DNA, 1 µM NMM

| SMILES | ΔT1/2 [1] [°C] | ΔT1/2 [2] [°C] | ΔT1/2 [3] [°C] | ΔT1/2 [4] [°C] |
| --- | --- | --- | --- | --- |
| C[n+]1ccc(-c2c3nc(c(-c4cc[n+](C)cc4)c4ccc([nH]4)c(-c4cc[n+](C)cc4)c4nc(c(-c5cc[n+](C)cc5)c5ccc2[nH]5)C=C4)C=C3)cc1 | 34 ± 2 | 31 ± 2 |  |  |
| C=CC1=C(C)c2cc3[nH]c(cc4nc(cc5[nH]c(cc1n2)c(C)c5CCC(=O)O)C(CCC(=O)O)=C4C)c(C)c3C=C | 0.2 ± 0.3 | 0.2 ± 0.3 |  |  |
| C[n+]1ccc(-c2c3nc(c(-c4cc[n+](C)cc4)c4ccc([n-]4)c(-c4cc[n+](C)cc4)c4nc(c(-c5cc[n+](C)cc5)c5ccc2[n-]5)C=C4)C=C3)cc1.[Zn+2] | 23 ± 1 | 22.1 ± 0.9 |  |  |

The remaining lines, values ahead:

| ΔT1/2 [1] [°C] | ΔT1/2 [2] [°C] | ΔT1/2 [3] [°C] | ΔT1/2 [4] [°C] | SMILES |
| --- | --- | --- | --- | --- |
| 0.2 ± 0.3 | 0.8 ± 0.3 |  |  | CCC1=C(C)c2cc3[nH]c(cc4nc(cc5[nH]c(cc1n2)c(C)c5CC)C(C)=C4CCC(=O)O)c(CCC(=O)O)c3C |
|  |  | 14 ± 2 | 12.5 ± 0.3 | CCc1c(C)c2cc3nc(cc4nc(cc5c(CC)c(C)c(cc1[nH]2)n5C)C(C)=C4CCC(=O)O)C(CCC(=O)O)=C3C |
| 8.5 ± 0.6 | 9.8 ± 0.3 |  |  | C=Cc1c(C)c2cc3c(C=C)c(C)c(cc4nc(cc5nc(cc1[nH]2)C(C)=C5CCC(=O)O)C(CCC(=O)O)=C4C)n3C |
